Assay results taken from patent US20260138962A1, “SYNTHESIS OF DERIVATIVES OF SIPH[…] THERAPEUTIC USE THEREOF” (priority 2022, published 2026).
In brackets after ≈: the same amount, converted by molar mass.

What was measured:
Assay in all cases: microbe, parasite or virus in culture
Format in all cases: cell-based
SARS-CoV-2 Beta variant = details: Severe acute respiratory syndrome coronavirus 2, Vero C1008
SARS-CoV-2 Delta variant = details: Severe acute respiratory syndrome coronavirus 2, Vero C1008
[1] = test system: SARS-CoV-2 Wuhan isolate (wild type); details: Severe acute respiratory syndrome coronavirus 2, Vero C1008; positive control at 3.77 μg/ml; […]
[2] = positive control at 3.77 μg/ml, […]

Row | SMILES | IC50 (SARS-CoV-2 Beta variant; Beta strain, in vitro) [µg/mL] | inhibition at 0.5 µg/mL (SARS-CoV-2 Beta variant; Beta, 0.5 μg/ml, Vero E6 cells) [%] | inhibition at 2 µg/mL (SARS-CoV-2 Beta variant; Beta, 2 μg/ml, Vero E6 cells) [%] | inhibition at 5 µg/mL (SARS-CoV-2 Beta variant; Beta, 5 μg/ml, Vero E6 cells) [%] | inhibition at 16 µg/mL (SARS-CoV-2 Beta variant; Beta, 16 μg/ml, Vero E6 cells) [%] | inhibition at 50 µg/mL (SARS-CoV-2 Beta variant; Beta, 50 μg/ml, Vero E6 cells) [%] | IC50 (SARS-CoV-2 Delta variant; Delta strain, in vitro) [µg/mL] | inhibition at 0.5 µg/mL (SARS-CoV-2 Delta variant; Delta, 0.5 μg/ml, Vero E6 cells) [%] | inhibition at 2 µg/mL (SARS-CoV-2 Delta variant; Delta, 2 μg/ml, Vero E6 cells) [%] | inhibition at 5 µg/mL (SARS-CoV-2 Delta variant; Delta, 5 μg/ml, Vero E6 cells) [%] | inhibition at 16 µg/mL (SARS-CoV-2 Delta variant; Delta, 16 μg/ml, Vero E6 cells) [%] | inhibition at 50 µg/mL (SARS-CoV-2 Delta variant; Delta, 50 μg/ml, Vero E6 cells) [%] | inhibition at 3.77 µg/mL (SARS-CoV-2 Beta variant; [2]) [%] | inhibition at 3.77 µg/mL [1] [%] | inhibition at 3.77 µg/mL (SARS-CoV-2 Delta variant; [2]) [%]
1 | CC1=C2C[C@@H]3[C@@H](C)C=CC(=O)[C@@]3(C)C[C@@]2(O)OC1=O [HLS, (4aR,5S,8aS,9aR)-9a-hydroxy-3,5,8a-trimethyl-4a,5,9,9a-tetrahydronaphtho[2,3-b]furan-2,8(4H,8aH)-dione] | 8.93 (≈ 34 µM) | 25 | 25 | 50 | 75 | 100 | 6.15 (≈ 23.4 µM) | 0 | 25 | 50 | 75 | 100 |  |  | 
2 | CCC(CC)COC(=O)[C@H](C)N[P@](=O)(OC[C@H]1O[C@@](C#N)(c2ccc3c(N)ncnn23)[C@H](O)[C@@H]1O)Oc1ccccc1 [Remdesivir, reference compound] |  |  |  |  |  |  |  |  |  |  |  |  | 100 | 100 | 100
